Data reported in patent publication US20060039866A1, “Method for treating sleep-related breathing disorders” (Cypress Bioscience, Inc., priority 2004, published 2006).

Experiments:
rat model = details: cited from earlier work
[1] = system: patients with sleep apnea; details: cited from earlier work; for benefit in OSAS / obstructive sleep apnea: individuals with obstructive apnea
[2] = treating OSA with MER 810; details: in vivo
Excerpt: The latter has been associated with worsening OSA symptoms due to reduction in upper airway tone in animal models. However, this pharmacology may also increase SWS and increase respiratory drive via peripheral effects, while its serotonin (5-HT) reuptake inhibition and 5-HT1A agonist activities decrease REM sleep. The 5-HT1A agonist activity also increases respiratory drive and may increase upper airway muscle tone (Homer). Adding a noradrenergic alpha1 agonist, alpha2 antagonist or reuptake inhibitor bolsters the latter effect.

[3] = system: animal model of sleep apnea; details: cited from earlier work
[4] = individuals with obstructive sleep apnea

## CN1CCN2c3ncccc3Cc3ccccc3C2C1 (stereo not shown) [mirtazapine, 1,2,3,4,10,14b-hexahydro-2-methylpyrazino[2,1-a]pyrido[2,3-c]benzazepine]
Rat model
  efficacy in the rat model: appeared effective

## C=CCN1CC[C@]23c4c5ccc(O)c4O[C@H]2C(=O)CC[C@@]3(O)[C@H]1C5 [naloxone]
[1]
  benefit in OSAS / obstructive sleep apnea: only slightly helpful

## medroxyprogesterone
[1]
  benefit in OSAS / obstructive sleep apnea: no consistent benefit

## CC1CN(c2cccc(Cl)c2)CCN1CCCn1nc2ccccn2c1=O (stereo not shown) [MER 810]
[2]
  effectiveness in treating OSA: quite effective

## CNCCCC1c2ccccc2C=Cc2ccccc21 [Protriptyline]
[1]; individuals with OSAS
  results of several small trials: variable results
[1]; several small trials
  side effects: frequent and significant side effects

## Cn1c(=O)c2[nH]cnc2n(C)c1=O [theophylline]
[1]
  benefit in OSAS / obstructive sleep apnea: of no use
[1]; patients with central apnea
  benefit in central apnea: may benefit

## CCN1CC(CCN2CCOCC2)C(c2ccccc2)(c2ccccc2)C1=O (stereo not shown) [doxapram]
[1]; [4]
  average arterial oxygen saturation: did not alter
  length of apneas: decrease the length of apneas

## Nc1ncnc2c1ncn2[C@@H]1O[C@H](CO)[C@@H](O)[C@H]1O [adenosine]
[3]
  reducing apnea: somewhat effective

## CC(=O)Nc1nnc(S(N)(=O)=O)s1 [acetazolamide, N-(5-[Aminosulfonyl]-1,3,4-thiadiazol-2-yl)acetamide]
[1]; Whyte et al., Sleep
  apnea/hypopnea frequency: improvement in apnea/hypopnea frequency
  frequency of 4% desaturation: decreased the frequency of 4% desaturation
